Columns and labels:
[1] = Narcosis-prolonging action in rats (chloral hydrate narcosis), sedative action; details: rat, in vivo, po
Experimental: (§1) The time at which the righting reflex ceases to function is measured.
(§2) The reference substances were the conventional anti-hypertensive agents clonidine and benclonidine.
(§3) An undesired side-effect of clonidine is the central-suppressive (sedative) action, which was tested using, as a model, the prolongation of chloral hydrate narcosis.

[2] = system: chloral hydrate narcosis in Sprague-Dawley rats; test: as above; details: for Narcosis-prolonging effect R.E. (relative effectiveness): rats, oral administration, relative to clonidine = 1.00
Experimental: as §1, §2, §3

Acute toxicity (LD 50) = details: rat, in vivo, po
Experimental: To determine the acute toxicity (LD 50), the compounds are administered orally to groups of 10 male Sprague-Dawley rats each weighing 150-320 g. The period of observation is 1 week.

[3] = system: spontaneously hypertonic Okamoto rats (SH rats); test: Anti-hypertensive action, systolic blood pressure in spontaneously hypertonic rats, oral; format: in vivo, rat (male spontaneously hypertonic Okamoto rats); details: oral administration; for ED20: Rattus norvegicus, dose lowering systolic pressure by 20%, 2 h after administration, read-out: Anti-hypertensive effect ED 20%; for Anti-hypertensive effect R.E. (relative effectiveness): relative to clonidine = 1.00
Experimental: The compounds are administered orally to groups of 4-8 male spontaneously hypertonic Okamoto rats (SH rats). Before, and two hours after, the administration, the systolic blood pressure is measured on the tail of the rat by means of a piezoelectric sensor.
The ED 20% is determined, from the dose-effect relationship and taking into account the values found with untreated control animals, as the dose which lowers the systolic pressure by 20%.

[4] = German Published Application DAS No. 2,559,711; cited from earlier work
[5] = DAS No. 2,559,711; cited from earlier work
[6] = compared with clonidine; DAS No. 2,559,711; cited from earlier work

O=C(c1ccccc1)N1CCN=C1Nc1c(Cl)cccc1Cl [Benclonidine, 1-benzoyl-2-(2',6'-dichlorophenylamino)-2-imidazoline]
ED50 [1]: 0.948 mg/kg
selectivity ratio [1]: 1.13
Narcosis-prolonging effect R.E. (relative effectiveness) [2]: 0.06
LD50 at 168 h (Acute toxicity (LD 50)): 68.1 mg/kg
ED20 [3]: 0.836 mg/kg
Anti-hypertensive effect R.E. (relative effectiveness) [3]: 0.10
blood pressure-reducing properties [4]: exhibits blood pressure-reducing properties
absorption on oral administration [5]: efficiently absorbed on oral administration
sedative side-effects [6]: lesser sedative side-effects than the parent compound clonidine

Clc1cccc(Cl)c1NC1=NCCN1 [Clonidine, 2-(2',6'-dichlorophenylamino)-2-imidazoline]
ED50 [1]: 0.0565 mg/kg
selectivity ratio [1]: 0.68
Narcosis-prolonging effect R.E. (relative effectiveness) [2]: 1.00
LD50 at 168 h (Acute toxicity (LD 50)): 67.3 mg/kg
ED20 [3]: 0.0829 mg/kg
Anti-hypertensive effect R.E. (relative effectiveness) [3]: 1.00
blood pressure-reducing properties [4]: exhibits blood pressure-reducing properties

O=C(c1cccnc1)N1CCN=C1Nc1c(Cl)cccc1Cl [Example 1, 1-nicotinoyl-2-(2',6'-dichlorophenylamino)-2-imidazoline]
ED50 [1]: 0.1 mg/kg
selectivity ratio [1]: 1.27
Narcosis-prolonging effect R.E. (relative effectiveness) [2]: 0.57
LD50 at 168 h (Acute toxicity (LD 50)): 80 mg/kg
ED20 [3]: 0.0786 mg/kg
Anti-hypertensive effect R.E. (relative effectiveness) [3]: 1.05

O=C(c1ccc2ccccc2n1)N1CCN=C1Nc1c(Cl)cccc1Cl [Example 45, 1-(quinolin-2-oyl)-2-(2',6'-dichlorophenylamino)-2-imidazoline]
ED50 [1]: 0.464 mg/kg
selectivity ratio [1]: 5.42
ratio of sedative to anti-hypertensive doses compared with clonidine or benclonidine ([2]; compared with clonidine or benclonidine): substantially more advantageous
Narcosis-prolonging effect R.E. (relative effectiveness) [2]: 0.12
LD50 at 168 h (Acute toxicity (LD 50)): 44 mg/kg
ED20 [3]: 0.0856 mg/kg
Anti-hypertensive effect R.E. (relative effectiveness) [3]: 0.97
